# Reference: US20100222285A1, “METHOD OF CONTROLLING THE PROLIFERATION OF VASCULAR ENDOTHELIAL CELLS AND INHIBITING LUMEN FORMATION” (Rare Sugar Production Technical Research Laboratories, LLC, priority 2004, published 2010)
# Entries after “also recorded” stand apart in the source; their conditions may differ.
# Tests used:
# HUVEC = assay: 14C-glucose up-take in vascular endothelial cell; format: cell-based, human; conditions: sugars 20 mM (2 mM for 2DG), 48 hours; for effect on the glucose up-take of HUVEC: both culture media ([GLU]=0.1 mM and 4.5 mM), VEGF 10 ng/mL; for effect on the glucose up-take accelerated by VEGF: with VEGF 10 ng/mL
# Procedure: Most of the physiological actions of monosaccharides are likely to be caused by the structural similarity to D-glucose, and one of the mechanisms is considered to be an influence on glucose metabolism. Then, in order to elucidate the influence on metabolism, the effect of HUVEC on the glucose up-take was examined for FRU, ALO, PSI, ALL, 2DG, MAN, and GAL. ^14C-Glucose was added to a culture medium, and the incorporated amount after 48 hours was counted by a scintillation counter. HUVEC was inoculated on a 24-well plate at a rate of 12000 cells/well. The medium was allowed to stand in 400 μL of Humedia EB2+2% FBS overnight. Next day, the medium was replaced by a medium containing ^14C-glucose. The medium used in replacement was the total 400 μL/well of medium containing ^14C-glucose (360 μL)+saline/VEGF (20 μL)+saline/RS (20 μL). The stock solution of ^14C-glucose 100 Bq/μL saline was diluted 10-fold with 2% FBS-containing medium (glucose-free or low glucose) to give a culture medium of 10 Bq/μL. The experiment was carried out on a lower glucose medium (final concentration [GLU]=0.1 mM) and on a high glucose medium ([GLU]=4.5 mM). ^14C-glucose was added at 3600 Bq/well. Further, FRU: D-fructose, ALO: D-allose, PSI: D-psicose, ALL: allitol, 2DG: 2-deoxy glucose, MAN: D-mannose, or GAL: D-galactose was added to the medium as an additive at 20 mM (provided 2 mM for 2DC). Irritation for growth was also carried out with VEGF (10 ng/mL). After a lapse of 48 hours, the well was washed twice with PBS, to which was then added 200 μL of 2% Triton, of which 180 μL was used as a sample for scintillation counter. The incorporation of ^14C-glucose into the HUVEC cells was calculated from the count in each well in the unit of nmol/well and depicted in a graph.
# [1] = tested on: human endothelial cells and fibroblasts; assay: Experiment of luminal formation: concurrent culture, CD31 staining, area of the lumen; format: cell-based; conditions: for effect on the luminal formation: Example 1, 0.1-20 mM; for effect on the luminal formation of HUVEC: Example 2 (36 species), incubation for 10 days; for antagonism of the luminal formation inhibitory effect by D-glucose: co-existence of 20 mM D-glucose; for inhibition of the acceleration of luminal formation by VEGF: with VEGF
# Procedure: Using a concurrent culture system of human endothelial cells and fibroblasts planted on a 24-well plate (Kurabo Co., Osaka, Japan), the culture medium was replaced by culture media containing a variety of additives at the early stage of luminal formation. Every 3 days, the medium was exchanged with the additive; 10 day after incubation, the endothelial cell only was stained by using mouse anti-human CD31 antibody (Kurabo Co., Osaka, Japan), goat anti-mouse IgG AlkP Conjugate (Kurabo Co., Osaka, Japan), and BCPI (5-bromo-4-chloro-3-indolyl phosphate) (Kurabo Co., Osaka, Japan) to photograph. The visualized area of the lumen was measured by means of NIH image software.
# [2] = tested on: Human umbilical cord vascular endothelial cells (HUVEC); assay: Experiment of growth: HUVEC cell number by WST-8 after 48 hrs; format: cell-based; conditions: for antagonism of the growth inhibitory effect by D-glucose: co-existence of 20 mM D-glucose; for inhibition at 20000 µM: 20 mM, read-out: inhibition of growth to the control group
# Procedure: Human umbilical cord vascular endothelial cells (HUVEC) were purchased as primary cultured cells from KURABO (Kurabo Co., Osaka, Japan) and the cells up to P8 were used in experiments. The cells were inoculated on a 96-well plate at a rate of 3000 cells/well, and allowed to stand in Humedia EG2 (Kurabo) overnight (37° C., 5% CO2). Next morning, the medium was replaced by 90 μl of 2% FBS-containing Humedia EB2 (Kurabo), to which was then added 10 μl of additive, and after a lapse of 48 hrs the number of cells was counted. No medium was exchanged during this period. In counting, a tetrazolium salt WST-8 was added to each well (0.5 mM), and after 2 hrs the absorbance was measured at 450 nm. The tetrazolium salt added was reduced with an intracellular dehydrogenase to yield formazan depending on the number of cells in the well. In advance, the absorbance at 450 nm was confirmed to show a linearity within the range of 500 to 12000 cells in the well.
# [3] = Basic safety tests (mutagenicity, biodegradable test, 3 acute toxicity tests); conditions: oral acute toxicity, skin and ophthalmic primary irritation, by a designated organ
# Text: The most important and highest hurdle in the development of approved drugs/quasi drugs or foods is to confirm safety of the rare sugar as a new substance. As the most basic safety tests, mutagenicity, biodegradable test and 3 acute toxicity tests (oral acute toxicity test, skin primary irritation test, ophthalmic primary irritation test) are decided. Since rare sugars are monosaccharides naturally occurring in very small quantities, it is necessary to examine exactly, though they are expected to be safe. We requested of a designated organ to examine the basic safety test on 3 species of rare sugars, i.e., D-psicose, D-allose and allitol. As a result, it was confirmed that there was no problem in any of the rare sugars.
# [4] = Example 2 (36 species), 48 hours
Molecule,effect on the glucose up-take of HUVEC (HUVEC),effect on the glucose up-take accelerated by VEGF (HUVEC),effect on the luminal formation ([1]; 10 days),effect on the luminal formation of HUVEC [1],antagonism of the luminal formation inhibitory effect by D-glucose [1],inhibition of the acceleration of luminal formation by VEGF [1],"effect on the growth of HUVEC ([2]; Example 1, 0.1-20 mM, 48 hrs)","effect on the growth of HUVEC [2, 4]",antagonism of the growth inhibitory effect by D-glucose [2],"inhibition at 20000 µM ([2]; Homo sapiens, HUVEC, 48 hrs) [%]",result of the basic safety test [3],other results
"O=CC[C@@H](O)[C@H](O)[C@H](O)CO [2DG, 2-deoxy-D-glucose]",inhibitory effect,inhibited,effect was confirmed,inhibitory effect was observed; also recorded: much stronger action,antagonized,inhibit the acceleration by VEGF,effect was confirmed,inhibitory effect was observed; also recorded: particularly strong action,no antagonism,,,"effect on the luminal formation ([1]; 10 days, listed as 2-deoxy-D-glucose): inhibit both; inhibition at 100 µM ([1]; Homo sapiens, 0.1 mM): 70%; inhibition at 500 µM ([1]; Homo sapiens, 0.5 mM): 95%; effect on the growth of HUVEC ([2]; Example 1, 0.1-20 mM, 48 hrs, listed as 2-deoxy-D-glucose): inhibit both; inhibition at 1000 µM ([2]; Homo sapiens, HUVEC, 1 mM, 48 hrs): 70%"
"O=C[C@H](O)[C@H](O)[C@H](O)[C@H](O)CO [A, D-allose]",inhibitory effect,inhibited,effect was confirmed,inhibitory effect was observed,no apparent effect,inhibit the acceleration by VEGF,effect was confirmed,inhibitory effect was observed,antagonized,40 to 80,no problem,"inhibition at 20000 µM ([1]; Homo sapiens, 20 mM): 50 to 80%"
"O=C[C@@H](O)[C@@H](O)[C@H](O)[C@H](O)CO [MAN, D-mannose]",inhibitory effect,inhibited,no influence,,,,effect was confirmed; also recorded: inhibitory effect for growth,inhibitory effect was observed,antagonized,40 to 80,,
"O=C(CO)[C@H](O)[C@H](O)[C@H](O)CO [PSI, D-psicose]",,,,,,,,no remarkable effect,,,no problem,
OC[C@@H](O)[C@@H](O)[C@@H](O)[C@@H](O)CO [allitol],,,,,,,,,,,no problem,
VEGF,accelerated,,,,,,,,,,,"luminal area in comparison to the control group ([1]; 10 ng/mL, 10 days): 2.8±0.6 times; cell number in comparison with the control group ([2]; 10 ng/mL, 48 hrs): 1.7±0.5 times"
